According to patent US12171874B2 (OrphAI Therapeutics Inc., priority 2013, dated 2024):
“Also recorded” adds a separate entry of the source.

Assays:
[1] = tested on: renal angiomyolipomas; details: oral, up to 2 years, 16 patients; cited from earlier work
[2] = Determination of rapamycin in lung and blood following oropharyngeal aspiration (OPA) and oral gavage (LC-MS/MS); assay type: in vivo, male C57BL/6 mice; details: 1 mg/kg; for Blood concentration of rapamycin: OPA, 72 h post-dose
Procedure: Source (for oral gavage): Rapamune Oral® (Pfizer) for oral administration, Lot No.: MWGT, Expiration: July 2016.
Animals: Male C57BL/6 mice, approximately 8 weeks of age, from Charles River Laboratories, Inc, Raleigh, NC. Animals were fed Certified Purina Rodent Chow #5002 and were furnished tap water ad libitum. The analysis of each feed batch for nutrient levels and possible contaminants was performed by the supplier, examined by the Study Director, and maintained in the study records. […] Mice were housed (one per cage) in polycarbonate cages with stainless steel bar lids accommodating a water bottle. Cage sizes are approximately 11.5″×7.5″×5″ high (70 sq. in. floor space) for mice. Contact bedding was Sani-Chips hardwood chips (P. J. Murphy Forest Products Co.; Montville, NJ). Mice were quarantined for a period of 5 days before use on a study. A veterinarian or qualified designee examined the animals prior to their release from quarantine. Temperature and relative humidity in RTI animal rooms were continuously monitored, controlled, and recorded using an automated system (Siebe/Barber-Colman Network 8000 System with Revision 4.4.1 for Signal® software [Siebe Environmental Controls (SEC)/Barber-Colman Company; Loves Park, IL]). The target environmental ranges were 64-79° F. (18° C.-26° C.) for temperature and 30-70% relative humidity, with a 12-h light cycle per day. At the end of the in-life phase, the mice were euthanized by overexposure to carbon dioxide. […]
Dosing: Each animal was weighed prior to dosing to determine the amount of dose to be administered. […] The dose administered to each animal was determined from the weight of the full syringe minus that of the empty syringe. The dosing time was recorded. […]
The concentrations of standards were arranged so that each standard came from an alternate stock standard. A six-point calibration curve, each made in triplicate, was employed for analyte quantitation. […] The concentration range determined was from 1-2000 ng/mL in blood and 2-2000 ng/mL in lung homogenate. […]

[3] = tested on: phosphorylated S6 protein; details: lung tissue concentration
From the text: In the mouse strain used (C57bl/6), the mouse airway and alveolar epithelial cells have constitutively active (phosphorylated, “p”) S6 protein.

[4] = 2012 meta-analysis; cited from earlier work

| SMILES | Renal angiomyolipoma response [1] | Blood concentration of rapamycin ([2]; group) | Blood concentration of rapamycin ([2]; individual animal) | Lung concentration of rapamycin ([2]; gavage (Rapamune Oral), 1 h post-dose, individual animal) | Drug in the lung that substantially abrogates mTOR signaling as measured by pS6 [3] | Cancer patients that may experience mild grade (pulmonary) toxicity [4] [%] |
| --- | --- | --- | --- | --- | --- | --- |
| CO[C@H]1C[C@@H]2CC[C@@H](C)[C@@](O)(O2)C(=O)C(=O)N2CCCC[C@H]2C(=O)O[C@H]([C@H](C)C[C@@H]2CC[C@@H](O)[C@H](OC)C2)CC(=O)[C@H](C)/C=C(\C)[C@@H](O)[C@@H](OC)C(=O)[C@H](C)C[C@H](C)/C=C/C=C/C=C/1C [Rapamycin, (3S,6R,7E,9R,10R,12R,14S,15E,17E,19E,21S,23S,26R,27R,34aS)-9,10,12,13,-14,21,22,23,24,25,26,27,32,33,34,34a-hexadecahydro-9,27-dihydroxy-3-[(1R)-2-[(1S,3R,4R)-4-hydroxy-3-methoxycyclohexyl]-1-methylethyl]-10,21-dimethox-y-6,8,12,14,20,26-hexamethyl-23,27-epoxy-3H-pyrido[2,1-c][1,4]oxaazacyclohentriacontine-1,5,11,28,29(4H,6H,31H)-pentone] | sustained regression | below the limit of quantitation; also recorded: undetectable | <ELOQ | <LOQ | about 70 ng/g | – |
| CO[C@H]1C[C@@H]2CC[C@@H](C)[C@@](O)(O2)C(=O)C(=O)N2CCCC[C@H]2C(=O)O[C@H]([C@H](C)C[C@@H]2CC[C@@H](OCCO)[C@H](OC)C2)CC(=O)[C@H](C)/C=C(\C)[C@@H](O)[C@@H](OC)C(=O)[C@H](C)C[C@H](C)/C=C/C=C/C=C/1C [everolimus] | – | – | – | – | – | 10 |
| CO[C@H]1C[C@@H]2CC[C@@H](C)[C@@](O)(O2)C(=O)C(=O)N2CCCC[C@H]2C(=O)O[C@H]([C@H](C)C[C@@H]2CC[C@@H](OC(=O)C(C)(CO)CO)[C@H](OC)C2)CC(=O)[C@H](C)/C=C(\C)[C@@H](O)[C@@H](OC)C(=O)[C@H](C)C[C@H](C)/C=C/C=C/C=C/1C [temsirolimus] | – | – | – | – | – | 10 |
